Paper PMC4116524, “A virtual screen identified C96 as a novel inhibitor of phosphatidylinositol 3-kinase that displays potent preclinical activity against multiple myeloma in vitro and in vivo” (Oncotarget, 2014)

Legend:
Format in all cases: cell-based
[1] = test system: phosphorylation of mTOR, p70S6K and 4E-BP1 in LP1, OPM2 and JJN3 cells; test: mTOR signaling pathway, immunoblotting; details: LP1, OPM2, JJN3, 24 hrs, concentration-dependent
Description: Figure 2 C96 inhibits AKT and mTOR signaling (A) LP1 and OPM2 were starved overnight, then treated with C96 at the indicated concentrations, or 100 μM of S14161 for 2 hrs, followed by IGF-1 (100 ng/mL) for 15 min. Cells were collected for the analysis of the expression of p-AKT and total AKT (T-AKT) by immunoblotting. […]
The PI3K/AKT plays a critical role in regulating a myriad of downstream effectors, of which the most prominent ones are mTOR/p70S6K/4E-BP1. […] To examine whether PI3K inhibition led to deregulation of the mTOR signaling pathway, we further measured the changes of mTOR, p70S6K and 4E-BP1 in MM cell lines LP1, OPM2, and JJN3 in the presence of C96.
Cells were treated with or without C96 for 24 hrs before being applied to lysate preparation in a lysis buffer (50 mM Tris-HCI, pH 7.4, 1% NP-40, 0.5% Na-deoxycholate, and 0.1% SDS, 150 mM NaCl, 2 mM EDTA, 2 mM Na3VO4, and 5 mM NaF). […] All immunoblotting signals were further analyzed with Quality One Quality One software (Bio-Rad, Berkeley, CA, USA).

[2] = test system: c-Src phosphorylation in LP1 and JJN3 cells; test: c-Src phosphorylation, immunoblotting; details: increasing concentrations, 24 hrs
Description: To elucidate this specificity, we first evaluated its effects on IGF-1R because IGF-1R as a receptor tyrosine kinase activates PI3K in the presence of IGF-1. To exclude the potential effects of C96 on IGF-1 signaling, LP1 and JJN3 cells were starved overnight followed by C96 or S14161 treatment for 2 hrs, and IGF-1 stimulation for 15 min. As expected, IGF-1 triggered AKT phosphorylation but it was suppressed by both C96 and the proven PI3K inhibitor S14161 without affecting total AKT expression (Figure 3A). […] Next, we evaluated other kinases including non-receptor kinase c-Src and a PI3K parallel kinase ERK which transduces external cellular signals. Both LP1 and JJN3 cells were treated with C96 at increasing concentrations that inhibited AKT and mTOR activation (Figure 2C).
Figure 3 C96 inhibits AKT but not IGF-1R, ERK or c-Src kinase activation (A) LP1 and JJN3 cells were starved overnight, then treated with 100 (μM of C96 or S14161 for 2 hrs, followed by IGF-1 (100 ng/mL) for 15 min. After incubation, cells were harvested and the expression of p-AKT, p-IGF-1R, total AKT (T-AKT), and IGF-1R proteins were detected by immunoblotting. (B) LP1 and JJN3 were treated with C96 at indicated concentrations for 24 hrs followed by immunoblotting assay for the expression of p-Src, c-Src, p-ERK, and ERK. GAPDH was used as a loading control. […]

[3] = test system: MM cell lines LP1, OPM2, JJN3, OCI-My5, RPMI-8226, U266, KMS11; test: Growth inhibition assay (MTT); details: panel of MM cell lines, within 72 hrs
Description: MM cells were dispensed in 96-well plates at a density of 8×10^3 cells per well and treated with increasing concentrations of C96 for 72 hrs, and the growth inhibitory effect of C96 on MM cells was assessed by an MTT assay as reported previously. To show the effect of C96 on cell growth in the presence of growth factor IGF-1, MM cells were first maintained in IMDM media containing 0.5% FBS for 12 hrs, followed by C96 treatment alone or in combination with 100 ng/mL of IGF-1. Cells were then incubated for another 24 hrs, relative cell proliferation was analyzed by an MTT assay. […]
www.impactjournals.com/oncotarget/ Oncotarget, Supplementary Materials 2014 SUPPLEMENTARY FIGURES AND TABLE
Supplementary Figure S1: C96 inhibits multiple myeloma cell proliferation. MM cell lines were treated with C96 with indicated concentrations for 72 hrs, followed by MTT assay. […]

O=C1NC(=O)C(=CC=Cc2cccs2)C(=O)N1 [C96, 5-(3-(2-thienyl)-2-propen-1-ylidene)-2,4,6(1H,3H,5H)-pyrimidinetrione]
phosphorylation levels of mTOR, p70S6K and 4E-BP1 [1]: downregulated | phosphorylation level of c-Src [2]: did not decrease | cell proliferation and viability (MTT) [3]: suppressed cell proliferation and reduced cell viability
